Experimental data from patent US20170266186A1, “USE OF INHIBITORS OF BRUTON'S TYROSINE KINASE (BTK)” (Pharmacyclics LLC, priority 2011, published 2017).

tested on: DLBCL xenograft; experiment: combination drug testing in a DLBCL xenograft; format: in vivo; settings: initial experiment in a DLBCL xenograft

SMILES | interaction with PCI-32765 in combination
CC(C)C[C@H](NC(=O)[C@H](Cc1ccccc1)NC(=O)c1cnccn1)B(O)O [bortezomib] | greater than additivity

tested on: cell lines; experiment: combination of PCI-32765 with other drugs in cell lines; format: cell-based; settings: not given

SMILES | interaction with PCI-32765 in combination
COc1cccc2c1C(=O)c1c(O)c3c(c(O)c1C2=O)C[C@@](O)(C(=O)CO)C[C@@H]3O[C@H]1C[C@H](N)[C@H](O)[C@H](C)O1 [doxorubicin] | additivity
CN(C)Cc1c(C(=O)NCCOc2ccc(C(=O)NO)cc2)oc2ccccc12 [3-((dimethylamino)methyl)-N-(2-(4-(hydroxycarbamoyl)phenoxy)ethyl)benzofuran-2-carboxamide] | weak synergy
COc1cc(Nc2ncc(F)c(Nc3ccc4c(n3)NC(=O)C(C)(C)O4)n2)cc(OC)c1OC [Compound R-406] | weak synergy
Nc1cccc2c1CN(C1CCC(=O)NC1=O)C2=O (stereo not shown) [lenalidomide] | weak synergy
N.N.O=C([O-])C1(C(=O)[O-])CCC1.[Pt+2] [carboplatin] | additivity
CC(C)C[C@H](NC(=O)[C@H](Cc1ccccc1)NC(=O)c1cnccn1)B(O)O [bortezomib] | weak synergy
CC[C@]1(O)C[C@H]2CN(CCc3c([nH]c4ccccc34)[C@@](C(=O)OC)(c3cc4c(cc3OC)N(C=O)[C@H]3[C@@](O)(C(=O)OC)[C@H](OC(C)=O)[C@]5(CC)C=CCN6CC[C@]43[C@@H]65)C2)C1 [vincristine] | additivity
Nc1ccn([C@@H]2O[C@H](CO)[C@@H](O)C2(F)F)c(=O)n1 [gemcitabine] | weak synergy
CNC(=O)c1cc(Oc2ccc(NC(=O)Nc3ccc(Cl)c(C(F)(F)F)c3)cc2)ccn1 [sorafenib] | weak synergy
CC(=O)O[C@H]1C(=O)[C@@]2(C)[C@H]([C@H](OC(=O)c3ccccc3)[C@]3(O)C[C@H](OC(=O)[C@H](O)[C@@H](NC(=O)c4ccccc4)c4ccccc4)C(C)=C1C3(C)C)[C@]1(OC(C)=O)CO[C@@H]1C[C@@H]2O [taxol] | additivity
Cn1c(CCCC(=O)O)nc2cc(N(CCCl)CCCl)ccc21 [bendamustine] | weak synergy
CO[C@H]1C[C@@H]2CC[C@@H](C)[C@@](O)(O2)C(=O)C(=O)N2CCCC[C@H]2C(=O)O[C@H]([C@H](C)C[C@@H]2CC[C@@H](OC(=O)C(C)(CO)CO)[C@H](OC)C2)CC(=O)[C@H](C)/C=C(\C)[C@@H](O)[C@@H](OC)C(=O)[C@H](C)C[C@H](C)/C=C/C=C/C=C/1C [temsirolimus] | additivity
